Test results as given in publication PMC6465675, “Design, Synthesis, Antiviral Evaluation, and SAR Studies of New 1-(Phenylsulfonyl)-1H-Pyrazol−4-yl-Methylaniline Derivatives” (Frontiers in Chemistry, 2019).
“Also recorded” adds a separate entry of the source.

Tests used:
[1] = tested on: WNV; assay: microbe, parasite or virus in culture; conditions: West Nile virus, BHK, read-out: WNV EC50
[2] = tested on: DENV-2
[3] = in vitro; conditions: Mesocricetus auratus (hamster)
[4] = tested on: WNV
[5] = tested on: DENV-2; assay: microbe, parasite or virus in culture; conditions: Dengue virus, DENV2, BHK, read-out: DENV-2 EC50
[6] = tested on: Reo-1; type: cell-based, reovirus type-1
[7] = tested on: BHK-21 cells
[8] = tested on: VSV; assay: microbe, parasite or virus in culture; type: cell-based; conditions: Vesicular stomatitis virus, Vero 76, read-out: VSV EC50
[9] = tested on: YFV; assay: microbe, parasite or virus in culture; conditions: Yellow fever virus, BHK, read-out: YFV EC50
[10] = tested on: RSV; assay: microbe, parasite or virus in culture; conditions: human respiratory syncytial virus, Vero 76, read-out: RSV EC50
[11] = tested on: CVB-5; assay: microbe, parasite or virus in culture; type: cell-based, Coxsackievirus B5; conditions: Enterovirus B, Vero 76, read-out: CVB-5 EC50
[12] = tested on: Sb-1; assay: microbe, parasite or virus in culture; type: cell-based, Poliovirus type-1, Sabin strain; conditions: Enterovirus C, Vero 76, read-out: Sb-1 EC50
[13] = in vitro; conditions: Bos taurus (cattle)
[14] = tested on: HSV-1; assay: microbe, parasite or virus in culture; type: cell-based, human herpesvirus 1; conditions: Human alphaherpesvirus 1, Vero 76, read-out: HSV-1 EC50
[15] = tested on: RSV
[16] = tested on: VV; assay: microbe, parasite or virus in culture; type: cell-based; conditions: Orthopoxvirus vaccinia, Vero 76, read-out: VV EC50
[17] = tested on: YFV
[18] = in vitro; conditions: Cercopithecus aethiops (monkey), Vero76 CC50
[19] = in vitro; conditions: human
[20] = tested on: BVDV; assay: microbe, parasite or virus in culture; conditions: Bovine viral diarrhea virus isolates and strains, MDBK, read-out: BVDV EC50
[21] = tested on: BVDV
[22] = tested on: YFV; type: cell-based, Yellow Fever Virus
[23] = tested on: HIV-1; assay: microbe, parasite or virus in culture; conditions: Human immunodeficiency virus 1, MT4, read-out: HIV-1 EC50

| SMILES | CC50 [3] | EC50 [8] | EC50 [9] | EC50 [10] | EC50 [11] | melting point | EC50 [12] | CC50 [13] | EC50 [14] | SI CC50/EC50 (RSV) [15] | EC50 [16] | SI CC50/EC50 (YFV) [17] | CC50 [18] | CC50 [19] | other results |
| --- | --- | --- | --- | --- | --- | --- | --- | --- | --- | --- | --- | --- | --- | --- | --- |
| Brc1ccc(NCc2cn(-c3ccccc3)nc2-c2ccc(Br)cc2)cc1 [1g] | > 100 µM | – | – | – | – | – | – | – | – | – | – | – | – | – | EC50 [1]: 80 ± 8.5 µM; SI CC50/EC50 (DENV-2) [2]: >4.3; SI CC50/EC50 (WNV) [4]: >1.25; EC50 [5]: 23 ± 6 µM |
| C[C@@]1(O)[C@H](O)[C@@H](CO)O[C@H]1n1ccc(N)nc1=O [NM107, 2′-C-methylcitidine] | – | – | – | – | – | – | – | – | – | – | – | – | – | – | EC50 [6]: 7.5 ± 1.5 µM; CC50 [7]: > 100 µM |
| O=S(=O)(c1ccccc1)n1cc(CNc2ccc(Cl)cc2)c(-c2ccc(Br)cc2)n1 [7f, 4-Chloro-N-[(3-(4-bromophenyl)-1-(phenysulfonyl)-1H-pyrazol-4-yl)methyl]aniline] | > 100 µM | > 90 µM | 4 ± 0.7 µM | 15.3 ± 2.5 µM | > 90 µM | 137 to 138 °C | > 90 µM | > 100 µM | > 90 µM | 5.9 | > 90 µM | >25.0 | 90 ± 2 µM | > 100 µM | – |
| C[C@@]1(O)[C@H](O)[C@@H](CO)O[C@H]1n1cnc2c(=O)[nH]c(N)nc21 [NM 108, 2′-C-methylguanosin, reference compound] | 60 ± 3 µM | – | – | – | – | – | – | – | – | – | – | – | – | – | EC50 [1]: 0.7 ± 0.2 µM; SI CC50/EC50 (DENV-2) [2]: 50.0; SI CC50/EC50 (WNV) [4]: 85.7; EC50 [5]: 1.2 ± 0.1 µM |
| O=S(=O)(c1ccccc1)n1cc(CNc2ccc(Cl)cc2)c(-c2ccc(Cl)cc2)n1 [7j, 4-Cloro-N-[(3-(4-chlorophenyl)-1-(phenylsulfonyl)-1H-pyrazol-4-yl)methyl]aniline] | > 100 µM | – | 4.4 ± 0.4 µM | 8.5 ± 0.5 µM | – | 142 to 143 °C | – | > 100 µM | – | >11.8 | – | >22.7 | > 100 µM | > 100 µM | EC50 [20]: 43.3 ± 1.1 µM; SI CC50/EC50 (BVDV) [21]: >2.3 |
| O=S(=O)(c1ccccc1)n1cc(CNc2ccc(Br)cc2)c(-c2ccc(Br)cc2)n1 [7g, 4-Bromo-N-[(3-(4-bromophenyl)-1-(phenylsulfonyl)-1H-pyrazol-4-yl)methyl]aniline] | > 100 µM | > 90 µM | 6.2 ± 0.5 µM | 15.8 ± 2 µM | > 90 µM | 150 to 151 °C | > 90 µM | > 100 µM | > 90 µM | 5.7 | > 90 µM | >16.1 | 90 ± 1 µM | > 100 µM | – |
| Clc1ccc(NCc2cn(-c3ccccc3)nc2-c2ccc(Cl)cc2)cc1 [1i] | 73 ± 1 µM | – | – | – | – | – | – | – | – | – | – | – | – | – | EC50 [1]: 57.5 ± 0.5 µM; SI CC50/EC50 (DENV-2) [2]: 5.0; SI CC50/EC50 (WNV) [4]: 1.3; EC50 [5]: 14.5 ± 3.5 µM |
| O=c1cnn([C@@H]2O[C@H](CO)[C@@H](O)[C@H]2O)c(=O)[nH]1 [6-Azauridine, reference compound] | > 100 µM | – | 46 ± 1.5 µM | 1.3 ± 0.3 µM | – | – | – | – | – | 7.2 | – | – | 9.3 ± 1.6 µM | – | Effect on YFV titer, compound added post infection [22]: lost its effectiveness when added after the infection; Effect on YFV titer, compound present in pre-treatment or during infection [22]: reduced the YFV titer when present in the pre-treatment or during the 2 h of infection |
| Cc1ccc(NCc2cn(-c3ccccc3)nc2-c2ccc(C(F)(F)F)cc2)cc1 [1o] | 88 ± 0.5 µM | – | – | – | – | – | – | – | – | – | – | – | – | – | EC50 [1]: 59 ± 1.1 µM; SI CC50/EC50 (DENV-2) [2]: 6.2; SI CC50/EC50 (WNV) [4]: 1.5; EC50 [5]: 14.3 ± 0.7 µM |
| O=S(=O)(c1ccccc1)n1cc(CNc2ccc(Br)cc2)c(-c2ccccc2)n1 [7c, 4-Bromo-N-[(3-phenyl-1-(phenylsulfonyl)-1H-pyrazol-4-yl)methyl]aniline] | > 100 µM | > 85 µM | 5.9 ± 0.2 µM | > 3 µM | 24 ± 11 µM | 122 °C | > 85 µM | > 100 µM | > 85 µM | – | > 85 µM | >16.9 | – | 20 µM | EC50 [23]: > 20 µM |
| O=S(=O)(c1ccccc1)n1cc(CNc2ccccc2)c(-c2ccc(Br)cc2)n1 [7e, N-[(3-(4-Bromophenyl)-1-(phenylsulfonyl)-1H-pyrazol-4-yl)methyl]aniline] | > 100 µM | > 87 µM | 3.6 ± 0.8 µM | 17.8 ± 1.8 µM | > 87 µM | 110 to 111 °C | > 87 µM | > 100 µM | > 87 µM | 4.9 | > 87 µM | >27.8 | 87 ± 1 µM | > 100 µM | Effect on YFV titer, compound added post infection [22]: achieved the highest reduction of virus titer when added 2 h post infection and maintained up to 4 h post infection; also recorded: retained its inhibitory activity when added at any time p.i; also recorded: highest reduction of virus yield was observed when 7e was added 2 h post infection and maintained up to 4 h post infection; Effect on YFV titer, compound present in pre-treatment or during infection [22]: reduced the YFV titer when present in the pre-treatment or during the 2 h of infection; EC50 [23]: 20 ± 2.4 µM; EC50 [20]: 19.5 ± 2.1 µM; SI CC50/EC50 (BVDV) [21]: >5.1 |
| Cc1ccc(NCc2cn(S(=O)(=O)c3ccccc3)nc2-c2ccc(Br)cc2)cc1 [7h, 4-Methyl-N-[(3-(4-bromophenyl)-1-(phenylsulfonyl)-1H-pyrazol-4-yl)methyl]aniline] | > 100 µM | > 93 µM | 4.9 ± 0.9 µM | 12.5 ± 2.5 µM | > 93 µM | 112 °C | > 93 µM | > 100 µM | > 93 µM | 7.4 | > 93 µM | >20.4 | 93 ± 0.5 µM | > 100 µM | – |
| COc1c(C)c2c(c(O)c1C/C=C(\C)CCC(=O)O)C(=O)OC2 [M 5255, Mycophenolic acid, reference compound] | – | – | – | – | – | – | – | – | – | – | 2 ± 0.1 µM | – | 20 ± 0.3 µM | – | – |
| Nc1nc2c(ncn2COCCO)c(=O)[nH]1 [ACG, Acyclovir, reference compound] | – | – | – | – | – | – | – | – | 2.9 ± 0.1 µM | – | – | – | > 100 µM | – | – |
| NC(=O)c1ncn([C@@H]2O[C@H](CO)[C@@H](O)[C@H]2O)n1 [Ribavirin, reference compound] | – | – | – | 37.5 ± 2.5 µM | – | – | – | 55 ± 7 µM | – | >2.7 | – | – | > 100 µM | – | EC50 [20]: 16 ± 2 µM; SI CC50/EC50 (BVDV) [21]: 3.4 |
| Cc1cc(CCCOc2c(C)cc(-c3noc(C(F)(F)F)n3)cc2C)on1 [Pleconaril, reference compound] | – | – | – | – | 0.0025 ± 0.0005 µM | – | 2 ± 0.1 µM | – | – | – | – | – | 70 ± 1 µM | – | – |
| O=S(=O)(c1ccccc1)n1cc(CNc2ccc(Cl)cc2)c(-c2ccccc2)n1 [7b, 4-Chloro-N-[(3-phenyl-1-(phenylsulphonyl)-1H-pyrazol-4-yl)methyl]aniline] | > 100 µM | > 80 µM | 8.1 ± 1.3 µM | – | 20 ± 5 µM | 136 to 137 °C | > 80 µM | > 100 µM | > 80 µM | – | > 80 µM | >12.3 | – | > 100 µM | – |
| COc1ccc(S(=O)(=O)n2cc(CNc3ccc(Cl)cc3)c(-c3ccc(Br)cc3)n2)cc1 [8b, 4-Chloro-N-[(3-(4-bromophenyl)-1-((4-methoxphenyl)sulfonyl)-1H-pyrazol-4-yl)methyl]aniline] | > 100 µM | – | 21.6 ± 0.8 µM | – | – | 153 to 154 °C | – | > 100 µM | – | – | – | >4.6 | > 100 µM | > 100 µM | EC50 [20]: 20 ± 1.4 µM; SI CC50/EC50 (BVDV) [21]: >5.0 |
| Cc1ccc(NCc2cn(-c3ccccc3)nc2-c2ccc(Cl)cc2)cc1 [1n] | > 100 µM | – | – | – | – | – | – | – | – | – | – | – | – | – | EC50 [1]: 39 ± 1 µM; SI CC50/EC50 (DENV-2) [2]: >9.0; SI CC50/EC50 (WNV) [4]: >2.6; EC50 [5]: 11.1 ± 1.6 µM |
